Measured values reported in ChEMBL document CHEMBL3046280, “Synthesis of 1-amidoalkyl-2-naphthols and oxazine derivatives with study of their antibacterial and antiviral activities” (Med Chem Res, 2013).
Activity calls are given as the source filed them. The rule behind the calls is not given here.

Legend:
Proteus mirabilis [1] = assay: Antibacterial activity against Proteus mirabilis assessed as growth inhibition; format: functional
Vero = assay: Cytotoxicity against Chlorocebus aethiops (African green monkey) Vero cells after 24 hr by MTT assay; format: cell-based; details: chlorocebus sabaeus
[2] = system: unidentified influenza virus; assay: Antiviral activity against unidentified influenza virus (H5N1) infected African green monkey Vero cells assessed as protection against virus-induced cytopathic effect incubated for 3 days measured on day 4 post infection by MTT assay; format: functional, organism-based
Staphylococcus aureus = assay: Antibacterial activity against Staphylococcus aureus assessed as growth inhibition; format: functional
Escherichia coli = assay: Antibacterial activity against Escherichia coli assessed as growth inhibition; format: functional, organism-based
Pseudomonas aeruginosa = assay: Antibacterial activity against Pseudomonas aeruginosa assessed as growth inhibition; format: functional, organism-based
Bacillus subtilis [3] = assay: Antibacterial activity against Bacillus subtilis assessed as growth inhibition; format: functional
[4] = Therapeutic index, ratio of LD50 for african green monkey Vero cells to EC50 for Avian influenza virus H5N1 infected in african green monkey Vero cells; format: cell-based; details: read-out: Ratio LD50/EC50
Klebsiella pneumoniae [5] = assay: Antibacterial activity against Klebsiella pneumoniae assessed as growth inhibition; format: functional
Bacillus subtilis [6] = assay: Antibacterial activity against Bacillus subtilis assessed as growth inhibition at 0.042 uM/ml; format: functional, organism-based
Proteus mirabilis [7] = assay: Antibacterial activity against Proteus mirabilis assessed as growth inhibition at 0.042 uM/ml; format: functional, organism-based
Klebsiella pneumoniae [8] = assay: Antibacterial activity against Klebsiella pneumoniae assessed as growth inhibition at 0.042 uM/ml; format: functional, organism-based

Row | Molecule | growth inhibition (GI) (Proteus mirabilis [1]) | LD50 (Vero) [uM/ml] | EC50 [2] [uM/ml] | diameter of the inhibition zone (DIZ) (Staphylococcus aureus) [mm] | growth inhibition (GI) (Escherichia coli) | growth inhibition (GI) (Pseudomonas aeruginosa) | diameter of the inhibition zone (DIZ) (Bacillus subtilis [3]) [mm] | selectivity ratio [4] | diameter of the inhibition zone (DIZ) (Klebsiella pneumoniae [5]) [mm] | growth inhibition (GI) (Staphylococcus aureus) | growth inhibition (GI) (Bacillus subtilis [3]) | growth inhibition (GI) (Klebsiella pneumoniae [5]) | diameter of the inhibition zone (DIZ) (Proteus mirabilis [1]) [mm] | inhibition zone (IZ) (Bacillus subtilis [6]) [mm] | inhibition zone (IZ) (Proteus mirabilis [7]) [mm] | inhibition zone (IZ) (Klebsiella pneumoniae [8]) [mm]
1 | c1ccc(C2=NC(c3c[nH]c4ccccc34)c3c(ccc4ccccc34)O2)cc1 (stereo not given) | inactive | 0.104 | 0.049 | 11 | inactive | inactive | 14 | 2.12 | 11 | – | – | – | – | – | – | –
2 | NC(=O)NC(c1c(O)ccc2ccccc12)c1c[nH]c2ccccc12 (stereo not given) | inactive | 0.217 | 0.031 | – | inactive | inactive | – | 7 | 11 | inactive | inactive | – | – | – | – | –
3 | c1ccc(-c2nn(-c3ccccc3)cc2C2NC(c3cn(-c4ccccc4)nc3-c3ccccc3)c3c(ccc4ccccc34)O2)cc1 (stereo not given) | inactive | 0.089 | 0.045 | 11 | inactive | inactive | 11 | 1.98 | 11 | – | – | – | – | – | – | –
4 | O=C(NC(c1c(O)ccc2ccccc12)c1c[nH]c2ccccc12)c1ccccc1 (stereo not given) | inactive | 0.307 | 0.019 | 11 | inactive | inactive | 11 | 16.2 | – | – | – | inactive | – | – | – | –
5 | O=C(NC(c1cn(-c2ccccc2)nc1-c1ccccc1)c1c(O)ccc2ccccc12)c1ccccc1 (stereo not given) | inactive | 0.098 | 0.018 | – | inactive | inactive | 20 | 5.44 | 14 | inactive | – | – | – | – | – | –
6 | NC1=NC(c2cn(-c3ccccc3)nc2-c2ccccc2)c2c(ccc3ccccc23)O1 (stereo not given) | inactive | 0.083 | 0.0148 | – | inactive | inactive | 12 | 5.61 | 11 | inactive | – | – | – | – | – | –
7 | CC(=O)N[C@H]1[C@H]([C@H](O)[C@H](O)CO)OC(C(=O)O)=C[C@@H]1NC(=N)N [ZANAMIVIR] | – | 0.232 | 0.015 | – | – | – | – | 15.5 | – | – | – | – | – | – | – | –
8 | NC(=O)NC(c1cn(-c2ccccc2)nc1-c1ccccc1)c1c(O)ccc2ccccc12 (stereo not given) | – | 0.171 | 0.025 | 24 | inactive | inactive | – | 6.84 | 11 | – | inactive | – | 0 | – | – | –
9 | CC(=O)NC(c1cn(-c2ccccc2)nc1-c1ccccc1)c1c(O)ccc2ccccc12 (stereo not given) | inactive | 0.151 | 0.021 | – | inactive | inactive | – | 7.19 | 18 | inactive | inactive | – | – | – | – | –
10 | NC1=NC(c2c[nH]c3ccccc23)c2c(ccc3ccccc23)O1 (stereo not given) | inactive | 0.125 | 0.061 | – | inactive | inactive | 12 | 2.05 | 13 | inactive | – | – | – | – | – | –
11 | GENTAMICIN | – | – | – | – | – | – | – | – | – | – | – | – | – | 21 | 25 | 19
12 | c1ccc2c3c(ccc2c1)OC(c1c[nH]c2ccccc12)NC3c1c[nH]c2ccccc12 (stereo not given) | inactive | 0.122 | 0.168 | – | inactive | inactive | 13 | 0.726 | 12 | inactive | – | – | – | – | – | –
13 | CC(=O)NC(c1c(O)ccc2ccccc12)c1c[nH]c2ccccc12 (stereo not given) | inactive | 0.197 | 0.022 | 20 | inactive | inactive | 17 | 8.95 | – | – | – | inactive | – | – | – | –
